According to the supplement of paper PMC10307832:

Assays:
Experiment in all cases: relative viability (nuclei count vs DMSO), 5 days (fraction); higher = more cells survive
BI-2536 + Vorinostat = compound: CC[C@@H]1C(=O)N(C)c2cnc(Nc3ccc(C(=O)NC4CCN(C)CC4)cc3OC)nc2N1C1CCCC1 [BI-2536] + O=C(CCCCCCC(=O)Nc1ccccc1)NO [Vorinostat] (partner 1 µM)
In short: (§1)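 Values are medians from duplicate plates. Each reflects relative viability, defined as the nuclei count of treated wells over that of vehicle wells. Lung cancer cell lines in 1536-well plates were pin-tool dosed one day after seeding with one drug alone or with a fixed anchor-drug dose plus five library-drug doses (not always all listed) in √10 steps, then fixed, stained and imaged at 4× after 5 days.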

[1] = compound: CC1CC(=O)N(C2=CN=C(N=C2N1C3CCCC3)NC4=C(C=C(C=C4)C(=O)NC5CCN(CC5)C)OC)C [NPK76-II-72-1] + N=C(N)NC(=N)NCCc1ccccc1 [Phenformin] (partner 250 µM)
In short: as §1

BI-2536 + Lapatinib = compound: CC[C@@H]1C(=O)N(C)c2cnc(Nc3ccc(C(=O)NC4CCN(C)CC4)cc3OC)nc2N1C1CCCC1 [BI-2536] + CS(=O)(=O)CCNCc1ccc(-c2ccc3ncnc(Nc4ccc(OCc5cccc(F)c5)c(Cl)c4)c3c2)o1 [Lapatinib] (partner 2 µM)
In short: as §1

[2] = compound: CC1CC(=O)N(C2=CN=C(N=C2N1C3CCCC3)NC4=C(C=C(C=C4)C(=O)NC5CCN(CC5)C)OC)C [NPK76-II-72-1] + O=C(CCCCCCC(=O)Nc1ccccc1)NO [Vorinostat] (partner 1 µM)
In short: as §1

Row | Cell Line | relative viability (BI-2536 + Vorinostat; first compound 0.01 µM) | relative viability (BI-2536 + Vorinostat; first compound 0.03162 µM) | relative viability (BI-2536 + Vorinostat; first compound 0.1 µM) | relative viability (BI-2536 + Vorinostat; first compound 0.3162 µM) | relative viability (BI-2536 + Vorinostat; first compound 1 µM) | relative viability ([1]; first compound 0.01 µM) | relative viability ([1]; first compound 0.03162 µM) | relative viability ([1]; first compound 0.1 µM) | relative viability ([1]; first compound 0.3162 µM) | relative viability ([1]; first compound 1 µM) | relative viability (BI-2536 + Lapatinib; first compound 0.01 µM) | relative viability (BI-2536 + Lapatinib; first compound 0.03162 µM) | relative viability (BI-2536 + Lapatinib; first compound 0.1 µM) | relative viability (BI-2536 + Lapatinib; first compound 1 µM) | relative viability ([2]; first compound 0.03162 µM) | relative viability ([2]; first compound 0.1 µM) | relative viability ([2]; first compound 0.3162 µM) | relative viability ([2]; first compound 1 µM) | relative viability (BI-2536 + Lapatinib; first compound 0.3162 µM) | relative viability ([2]; first compound 0.01 µM)
1 | NCI-H1793 | 0.695 | 0.352 | 0.17 | 0.117 | 0.18 | 0.3 | 0.387 | 0.38 | 0.31 | 0.432 | 0.581 | 0.507 | 0.256 | 0.193 | 0.693 | 0.809 | 0.61 | 0.825 | – | –
2 | NCI-H2023 | 0.684 | 0.549 | 0.154 | 0.0827 | 0.0741 | 0.43 | 0.422 | 0.455 | 0.398 | 0.43 | 0.963 | 0.613 | 0.0796 | 0.142 | 0.655 | 0.69 | 0.563 | 0.614 | 0.0761 | 0.504
3 | COR-L 105 | 0.959 | 0.79 | 0.52 | 0.349 | 0.334 | 0.491 | 0.541 | 0.409 | 0.474 | 0.551 | 0.309 | 0.364 | 0.271 | 0.269 | 0.807 | 0.832 | 0.82 | 0.989 | 0.248 | 0.747
4 | RERF-LC-KJ | 0.731 | 0.531 | 0.348 | 0.224 | 0.255 | 0.405 | 0.416 | 0.425 | 0.388 | 0.52 | 0.862 | 0.842 | 0.775 | 0.206 | 0.725 | 0.662 | 0.701 | 0.673 | 0.179 | 0.639
5 | LXF-289 | 0.855 | 0.684 | 0.372 | 0.0658 | 0.0936 | 0.531 | 0.587 | 0.503 | 0.516 | 0.497 | 0.889 | 0.839 | 0.443 | 0.0798 | 0.714 | 0.703 | 0.655 | 0.756 | 0.0583 | 0.772
6 | PC-14 | 0.809 | 0.387 | 0.0698 | 0.0322 | 0.0218 | 0.562 | 0.462 | 0.585 | 0.585 | 0.628 | 0.323 | 0.408 | 0.342 | 0.0774 | 0.73 | 0.684 | 0.698 | 0.807 | 0.0746 | 0.717
7 | NCI-H650 | 0.418 | 0.479 | 0.145 | 0.154 | 0.128 | 0.441 | 0.457 | 0.454 | 0.381 | 0.486 | 0.882 | 0.85 | 0.166 | 0.151 | 0.441 | 0.453 | 0.307 | 0.521 | 0.214 | 0.445
8 | NCI-H1666 | 0.984 | 1.03 | 1.03 | 0.504 | 0.49 | 0.509 | 0.581 | 0.577 | 0.584 | 0.583 | 0.779 | 0.582 | 0.29 | 0.262 | 0.996 | 0.983 | 0.955 | 1.17 | 0.231 | 1.04
9 | NCI-H2085 | 0.855 | 0.77 | 0.469 | 0.231 | 0.304 | 0.765 | 0.735 | 0.682 | 0.668 | 0.695 | 0.781 | 0.71 | 0.427 | 0.324 | 0.808 | 0.794 | 0.821 | 0.842 | 0.252 | 0.731
10 | NCI-H1734 | 0.734 | 0.543 | 0.17 | 0.165 | 0.169 | 0.374 | 0.38 | 0.379 | 0.427 | 0.425 | 1.04 | 0.81 | 0.427 | 0.206 | 0.845 | 0.779 | 0.764 | 0.951 | 0.205 | 0.857
11 | NCI-H2126 | 0.8 | 0.832 | 0.243 | 0.218 | 0.177 | 0.52 | 0.532 | 0.508 | 0.525 | 0.557 | 0.782 | 0.689 | 0.725 | 0.267 | 0.798 | 0.846 | 0.713 | 0.828 | 0.619 | 0.761
12 | EMC-BAC-2 | 0.468 | 0.416 | 0.171 | 0.144 | 0.131 | 0.521 | 0.546 | 0.54 | 0.55 | 0.634 | 0.881 | 0.837 | 0.767 | 0.154 | 0.186 | 0.493 | 0.416 | 0.524 | 0.182 | 0.423
13 | NCI-H1993 | 0.665 | 0.425 | 0.456 | 0.489 | 0.416 | 0.55 | 0.49 | 0.515 | 0.553 | 0.521 | 0.81 | 0.828 | 0.533 | 0.555 | 0.777 | 0.784 | 0.725 | 0.728 | 0.566 | 0.486
14 | NCI-H520 | 0.599 | 0.25 | 0.24 | 0.181 | 0.179 | 0.526 | 0.632 | 0.46 | 0.519 | 0.598 | 0.686 | 0.471 | 0.154 | 0.164 | 0.84 | 0.698 | 0.741 | 0.748 | 0.193 | 0.706
15 | NCI-H647 | 0.526 | 0.372 | 0.236 | 0.086 | 0.0837 | 0.46 | 0.676 | 0.629 | 0.623 | 0.533 | 1.11 | 0.737 | 0.104 | 0.129 | 0.568 | 0.4 | 0.668 | 0.725 | 0.0701 | 0.575
